Experimental data published in US6890936B2, “Muscarinic antagonists” (Schering Corporation, priority 2002, dated 2005).

Assays:
Conditions in all cases: membranes from stably transfected CHO cells, 3H-QNB 100-200 pM, 25° C., 90 minutes
[1] = biological target: T1, cloned human M4 muscarinic receptor (Homo sapiens, UniProt P08173); assay: Muscarinic binding activity, 3H-QNB displacement, M4
T1 sequence (P08173 1-479): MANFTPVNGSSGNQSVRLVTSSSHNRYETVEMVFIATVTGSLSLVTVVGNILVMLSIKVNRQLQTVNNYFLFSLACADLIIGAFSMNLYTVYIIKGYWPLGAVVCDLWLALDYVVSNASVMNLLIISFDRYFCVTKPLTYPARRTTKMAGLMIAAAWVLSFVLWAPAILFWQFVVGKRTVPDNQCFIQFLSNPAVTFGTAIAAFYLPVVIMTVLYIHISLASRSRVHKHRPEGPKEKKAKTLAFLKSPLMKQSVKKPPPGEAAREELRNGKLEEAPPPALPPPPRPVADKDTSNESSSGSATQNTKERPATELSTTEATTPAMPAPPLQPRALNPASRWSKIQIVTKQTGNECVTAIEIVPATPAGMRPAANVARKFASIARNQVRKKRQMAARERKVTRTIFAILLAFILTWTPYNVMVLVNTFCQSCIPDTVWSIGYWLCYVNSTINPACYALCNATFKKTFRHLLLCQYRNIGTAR

[2] = biological target: cloned human M3 muscarinic receptor (Homo sapiens, UniProt P20309); assay: Muscarinic binding activity, 3H-QNB displacement, M3
[3] = biological target: T2, cloned human M2 muscarinic receptor (Homo sapiens, UniProt P08172); assay: Muscarinic binding activity, 3H-QNB displacement, M2
T2 sequence (P08172 1-466): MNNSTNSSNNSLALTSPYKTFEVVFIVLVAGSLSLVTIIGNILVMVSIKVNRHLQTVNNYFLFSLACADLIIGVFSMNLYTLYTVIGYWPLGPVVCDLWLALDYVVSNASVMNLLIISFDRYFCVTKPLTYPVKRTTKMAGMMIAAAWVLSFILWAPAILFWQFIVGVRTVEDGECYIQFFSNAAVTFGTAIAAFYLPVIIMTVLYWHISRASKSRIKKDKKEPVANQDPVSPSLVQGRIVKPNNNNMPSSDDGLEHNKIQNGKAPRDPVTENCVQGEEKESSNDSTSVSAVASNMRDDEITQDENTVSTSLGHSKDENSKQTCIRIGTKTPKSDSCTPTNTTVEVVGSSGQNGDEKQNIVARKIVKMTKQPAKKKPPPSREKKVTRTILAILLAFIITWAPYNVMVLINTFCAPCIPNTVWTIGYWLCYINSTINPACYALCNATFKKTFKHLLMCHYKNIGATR

[4] = biological target: T3, cloned human M1 muscarinic receptor (Homo sapiens, UniProt P11229); assay: Muscarinic binding activity, 3H-QNB displacement, M1
T3 sequence (P11229 1-460): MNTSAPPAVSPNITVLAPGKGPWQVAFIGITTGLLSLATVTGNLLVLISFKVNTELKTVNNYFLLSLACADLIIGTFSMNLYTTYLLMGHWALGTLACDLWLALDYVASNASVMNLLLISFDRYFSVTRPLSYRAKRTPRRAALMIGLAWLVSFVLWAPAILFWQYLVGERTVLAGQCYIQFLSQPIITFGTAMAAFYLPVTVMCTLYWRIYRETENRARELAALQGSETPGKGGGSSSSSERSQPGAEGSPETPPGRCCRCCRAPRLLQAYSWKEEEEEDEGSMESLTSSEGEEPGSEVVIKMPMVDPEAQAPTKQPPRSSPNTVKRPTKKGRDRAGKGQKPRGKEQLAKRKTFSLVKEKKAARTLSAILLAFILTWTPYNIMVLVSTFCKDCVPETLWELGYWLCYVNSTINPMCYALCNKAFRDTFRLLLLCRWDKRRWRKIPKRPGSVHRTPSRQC

[5] = biological target: T4, cloned human M5 muscarinic receptor (Homo sapiens, UniProt P08912); assay: Muscarinic binding activity, 3H-QNB displacement, M5
T4 sequence (P08912 1-532): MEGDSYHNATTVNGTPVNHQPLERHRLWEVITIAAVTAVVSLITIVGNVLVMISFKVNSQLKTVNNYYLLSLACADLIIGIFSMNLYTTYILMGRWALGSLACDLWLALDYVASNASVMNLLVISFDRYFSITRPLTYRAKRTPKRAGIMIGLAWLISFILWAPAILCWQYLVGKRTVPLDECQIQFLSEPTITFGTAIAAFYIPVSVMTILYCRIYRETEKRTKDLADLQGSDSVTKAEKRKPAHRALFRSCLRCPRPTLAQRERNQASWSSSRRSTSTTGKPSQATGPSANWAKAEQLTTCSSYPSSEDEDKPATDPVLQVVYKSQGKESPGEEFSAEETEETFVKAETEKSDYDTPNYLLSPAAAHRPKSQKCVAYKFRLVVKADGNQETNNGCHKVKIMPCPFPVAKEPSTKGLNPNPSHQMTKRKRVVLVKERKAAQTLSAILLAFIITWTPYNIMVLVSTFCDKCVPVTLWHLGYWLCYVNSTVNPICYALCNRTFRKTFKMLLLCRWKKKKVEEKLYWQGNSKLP

cloned human M3 muscarinic receptor, sequence (P20309 whole entry): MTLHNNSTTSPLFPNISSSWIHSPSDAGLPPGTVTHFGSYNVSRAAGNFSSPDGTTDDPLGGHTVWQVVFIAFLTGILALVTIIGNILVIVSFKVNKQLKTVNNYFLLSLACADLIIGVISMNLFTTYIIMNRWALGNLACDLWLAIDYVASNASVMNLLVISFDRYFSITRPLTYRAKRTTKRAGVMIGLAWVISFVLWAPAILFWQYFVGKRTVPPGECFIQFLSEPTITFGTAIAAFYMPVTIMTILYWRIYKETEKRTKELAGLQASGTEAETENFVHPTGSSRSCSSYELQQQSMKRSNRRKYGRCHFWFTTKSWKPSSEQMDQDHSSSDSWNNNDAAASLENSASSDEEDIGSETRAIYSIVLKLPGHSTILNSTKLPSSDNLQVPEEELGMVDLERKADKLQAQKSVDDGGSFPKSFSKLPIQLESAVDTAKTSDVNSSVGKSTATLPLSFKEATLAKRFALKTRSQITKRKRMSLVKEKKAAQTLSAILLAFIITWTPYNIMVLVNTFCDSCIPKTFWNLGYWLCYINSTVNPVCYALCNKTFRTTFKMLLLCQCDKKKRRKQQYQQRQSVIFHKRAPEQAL

Ki [1] [nM] | Ki [2] [nM] | Ki [3] [nM] | Ki [4] [nM] | Ki [5] [nM] | SMILES
> 1000 | > 1000 | > 1440 | > 996 | > 1500 | CC(C)Oc1ccc(C2C(Cl)(Cl)C23CCN(C2CCN(C(=O)c4cccc(Cl)c4Cl)CC2)CC3)cc1 (stereo not shown) [Compound 3]
– | – | > 1900 | > 1200 | – | CC(C)Oc1ccc(C2C(Cl)(Cl)C23CCN(C2CCN(C(=O)c4ccc(F)c5ccccc45)CC2)CC3)cc1 (stereo not shown) [Compound 13]
> 1000 | > 1000 | 1200 | > 990 | 42 | CC(C)Oc1ccc(C2C(Cl)(Cl)C23CCN(C2CCN(C(=O)c4cccc(F)c4N)CC2)CC3)cc1 (stereo not shown) [Compound 6]
– | – | > 1400 | 982 | – | Cc1c(Cl)cccc1C(=O)N1CCC(N2CCC3(CC2)C(c2ccc(OC(C)C)cc2)C3(Cl)Cl)CC1 (stereo not shown) [Compound 2]
> 1000 | > 1000 | 607 | 819 | > 1500 | CC(C)Oc1ccc(C2CC23CCN(C2CCN(C(=O)c4cccc(Cl)c4Cl)CC2)CC3)cc1 (stereo not shown) [Compound 8]
> 1000 | > 1000 | 1390 | > 990 | 786 | CC(C)Oc1ccc(C2C(Cl)(Cl)C23CCN(C2CCN(C(=O)c4cccc(Cl)c4N)CC2)CC3)cc1 (stereo not shown) [Compound 5]
> 1000 | > 1000 | 77 | > 990 | 96 | Cc1cccc(C(=O)N2CCC(N3CCC4(CC3)C(c3ccc(OC(C)C)cc3)C4(Cl)Cl)CC2)c1N (stereo not shown) [Compound 4]
> 1000 | > 1000 | > 1400 | > 990 | 891 | Cc1cccc(C(=O)N2CCC(N3CCC4(CC3)C(c3ccc(OC(C)C)cc3)C4(Cl)Cl)CC2)c1Cl (stereo not shown) [Compound 1]
151 | 691 | 49 | 600 | 619 | CC(C)Oc1ccc(C2(C)CC23CCN(C2CCN(C(=O)c4cccc(Cl)c4N)CC2)CC3)cc1 (stereo not shown) [Compound 11]
272 | > 1200 | 113 | 744 | 1210 | Cc1c(Cl)cccc1C(=O)N1CCC(N2CCC3(CC2)CC3(C)c2ccc(OC(C)C)cc2)CC1 (stereo not shown) [Compound 12]
– | – | 481 | > 1200 | – | CCCS(=O)(=O)N1CCC(N2CCC3(CC2)C(c2ccc(OC(C)C)cc2)C3(Cl)Cl)CC1 (stereo not shown) [Compound 15]
261 | > 1200 | 149 | 1010 | 995 | CC(C)Oc1ccc(C2(C)CC23CCN(C2CCN(C(=O)c4cccc(Cl)c4Cl)CC2)CC3)cc1 (stereo not shown) [Compound 10]
> 1000 | > 1000 | > 1380 | > 900 | > 1500 | Cc1c(Cl)cccc1C(=O)N1CCC(N2CCC3(CC2)CC3c2ccc(OC(C)C)cc2)CC1 (stereo not shown) [Compound 7]
– | – | > 1900 | > 1200 | – | Cc1cccc(C)c1C(=O)N1CCC(N2CCC3(CC2)C(c2ccc(OC(C)C)cc2)C3(Cl)Cl)CC1 (stereo not shown) [Compound 17]
– | – | 1840 | > 1200 | – | CC(C)Oc1ccc(C2C(Cl)(Cl)C23CCN(C2CCN(S(=O)(=O)c4cccc5ccccc45)CC2)CC3)cc1 (stereo not shown) [Compound 16]
> 1000 | > 1000 | 490 | > 900 | > 1500 | CC(C)Oc1ccc(C2CC23CCN(C2CCN(C(=O)c4cccc(Cl)c4N)CC2)CC3)cc1 (stereo not shown) [Compound 9]
– | – | > 1900 | > 1200 | – | CC(C)Oc1ccc(C2C(Cl)(Cl)C23CCN(C2CCN(C(=O)c4cccc5c(Br)cccc45)CC2)CC3)cc1 (stereo not shown) [Compound 14]
